Target: T1, Protein RecA (Escherichia coli K-12) (UniProt P0A7G6)
T1 sequence (whole entry): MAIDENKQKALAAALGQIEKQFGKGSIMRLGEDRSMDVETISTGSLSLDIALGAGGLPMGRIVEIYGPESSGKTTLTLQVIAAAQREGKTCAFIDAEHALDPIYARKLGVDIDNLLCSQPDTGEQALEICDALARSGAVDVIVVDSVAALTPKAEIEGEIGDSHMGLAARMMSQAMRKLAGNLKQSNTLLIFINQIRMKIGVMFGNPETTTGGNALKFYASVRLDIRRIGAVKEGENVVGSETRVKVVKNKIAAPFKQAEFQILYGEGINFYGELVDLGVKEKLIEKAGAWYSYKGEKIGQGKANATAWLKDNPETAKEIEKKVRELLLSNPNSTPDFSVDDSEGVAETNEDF
Experiment: In vitro apparent inhibition constant against Escherichia coli RecA protein

Kic: 46 µM
SMILES: O=P(O)(O)OP(=O)(O)OC[C@H]1O[C@@H](n2cnc3c(Nc4cccc5ccccc45)ncnc32)[C@H](O)[C@@H]1O
